Patent US8058258B2, “Methods for cancer therapy and stem cell modulation” (Agency for Science, Technology and Research, priority 2006, dated 2011)
Where a SMILES comes first, the peptide text is derived from it. [ ]: non-standard residue; d: D form. The star is where a group is joined. Nle = CCCC[C@H](N)C(=O)O; Nva = CCC[C@H](N)C(=O)O; Cbz = O=C(OCc1ccccc1)*

Experiments:
Assay type in all cases: cell-based, human
[1] = tested on: EZH2 and SUZ12 protein levels in MCF-7 cells; assay: Proteosome inhibitor rescue of 3-deazaneplanocin-induced PRC2 depletion (Western blot); settings: 3-deazaneplanocin 18 h then MG132 (5 μM), LLNL (50 μM) or MG115 (20 μM) for 8 h
Description: FIG. 1C depicts the effect of 3-deazaneplanocin in the presence of proteosome inhibitors on EZH2 and SUZ12 protein levels. MCF-7 cells were treated with 3-deazaneplanocin for 18 h, followed by the addition of proteosome inhibitor MG132 (5 μM), LLNL (50 μM), MG115 (20 μM) […] for 8 h. Cells were harvested for Western blot analysis of EZH2 and SUZ12.
Cell pellets were first lysed in RadioImmuno Precipitation Assay (RIPA) buffer, consisting of an aqueous solution of 25 mM Tris-HCl pH 7.6, 150 mM NaCl, 1% Nonidet-P 40 (NP-40), 1% sodium deoxycholate and 0.1% sodium dodecylsulfate (SDS), before further sonicated using a tissue homogeniser to release all the proteins. Equal amounts of protein were separated on SDS-polyacrylamide gels and transferred to polyvinylidene difluoride (PVDF) membranes. The blots were probed with antibodies against: EED (07-368), SUZ12 (07-379), SUV39H1 (07-550), BMI1 (05-637), tri-methylated H3-K27 (07-449), tri-methylated H3-K9 (07-442) and Acetyl-Histone H3 (06-599), and were purchased from Upstate. EZH2 (AC22) and Histone H3 (3H1) were from Cell Signaling. Antibodies against DNA methyl-transferases DNMT1 and DNMT3B were purchased from Alexis Biochemicals.
It has previously been reported that the stability of PRC2 proteins is regulated through proteosome-mediated mechanism. It was therefore tested whether the depletion of PRC2 proteins by 3-deazaneplanocin results from the protein degradation. MCF-7 cells were treated with 3-deazaneplanocin in the presence or absence of three individual proteosome inhibitors MG132, LLNL, and MG115 to test if these treatments would rescue 3-deazaneplanocin-induced PRC2 depletion.

[2] = tested on: MCF-7 cells; assay: Microarray gene expression analysis (Illumina BeadChip) in MCF-7 cells
Description: (§1) Cells were maintained in DMEM supplemented with 10% fetal bovine serum with glutamine, penicillin, and streptomycin. For drug treatment, cells were seeded the day before the drug treatment. Cells were treated with 5 μM 3-Deazaneplanocin A or 2 μM 5-aza-2′-deoxycytidine (5-AzaC; Sigma) for 72 hours and trichostatin A (TSA; Sigma) at 100 nM for 24 hours. For co-treatment of cells with 5-AzaC and TSA, 5-Aza was added for 48 hours and followed by TSA for 24 hours.
The Smartpool siRNA duplexes of selected PRC2 targets and the non-targeting control were purchased from Dharmacon (Lafayett, Colo.). […] Cells were transfected with 50 nM final concentration of siRNA duplexes using Lipofectamine 2000 (Invitrogen) following the manufacturer's instructions.
Total RNA was isolated from cell lines using Trizol (Invitrogen) and was converted to cDNA using an RNA Amplification kit (Ambion). The microarray hybridisation was performed using the Illumina Gene Expression BeadChip (Illumina) and data analysis was performed using GeneSpring software from Agilent Technologies.
The effects on gene expression were analysed using an Illumina Gene Expression BeadChip. […] To be inclusive for the subsequent analysis, all 1402 genes were considered to be potential PRC2 target genes.
To identify the PRC2 targets specifically repressed in breast cancer cells, the expression profiles of the 140 putative PRC2 target genes in MCF-7 cells and MCF10A cells were compared by gene clustering analysis (FIG. 4C).

[3] = tested on: PRC2 target genes TGFBI, KRT17, FBXO32, ANXA8, DLX2; assay: Real-time RT-PCR of representative PRC2 targets in MCF-7 cells
Description: I: MCF-7 cells were untreated or treated with 3-deazaneplanocin (DZNep), 5-azacytidine (5-AzaC) or a combination of 5-azacytidine and trichostatin A (AZA+TSA), and RNA was isolated for gene expression analysis.
as §1
Total RNA was isolated from cell lines using Trizol (Invitrogen) and was converted to cDNA using an RNA Amplification kit (Ambion). […] Quantitative real-time PCR was performed on a PRISM 7900 sequenced detector (Applied Biosystems) using TaqMan probes (Applied Biosystems). Samples were normalized to the levels of 18S ribosomal RNA.
The array results were further confirmed by real-time RT-PCR for representative PRC2 targets.

Row | Molecule | downregulation of EZH2 and SUZ12 protein levels in response to 3-deazaneplanocin [1] | other results
1 | CCC[C@@H](C=O)NC(=O)[C@H](CC(C)C)NC(=O)[C@H](CC(C)C)NC(=O)OCc1ccccc1 [MG115] (Cbz-Leu-Leu-[Nva]-aldehyde) | prevented the downregulation | 
2 | CC(C)C[C@@H](C=O)NC(=O)[C@H](CC(C)C)NC(=O)[C@H](CC(C)C)NC(=O)OCc1ccccc1 [MG132] (Cbz-Leu-Leu-Leu-aldehyde) | prevented the downregulation | 
3 | CCCC[C@@H](C=O)NC(=O)[C@H](CC(C)C)NC(=O)[C@H](CC(C)C)NC(C)=O [LLNL] (Ac-Leu-Leu-[Nle]-aldehyde) | prevented the downregulation | 
4 | Nc1ncn([C@H]2C[C@H](O)[C@@H](CO)O2)c(=O)n1 [5-AzaC, 5-aza-2′-deoxycytidine, reference compound] |  | reactivation of the 140 PRC2 targets in general, in comparison with 3-deazaneplanocin ([2]; array, 5-AzaC 2 μM, TSA 100 nM): did not result in the significant reactivation; induction of TGFBI, KRT17 and FBX032 (real-time RT-PCR) [3]: not
5 | SUZ12 siRNA: siRNA targeting SUZ12 mRNA; stem-loop RNA from oligonucleotides SEQ ID NO: 1 and 2 (nucleic acid, expressed or natural sequence; the letters are possibly those of the target site) chain 1: GATCCCCGTCGCAACGGACCAGTTAATTCAAGAGATTAACTGGTCCGTTGCGACTTTTTGGAAA chain 2: TCGATTTCCAAAAAGTCGCAACGGACCAGTTGATCTCTTGAATTAACTGGTCCGTTGCGACGGG |  | number of genes upregulated ≧2-fold after siRNA treatment ([2]; siRNA knockdown of PRC2 component): 572 genes
